Reference: patent publication US20230391772A1, “METHODS AND COMPOSITIONS FOR TARGETED PROTEIN DEGRADATION” (Ranok Therapeutics (Hangzhou) Co. Ltd., priority 2020, published 2023)

Experiments:
[1] = tested on: MIA PaCa-2 human pancreatic carcinoma; assay: MIA PaCa-2 CCK-8 proliferation assay; format: cell-based; settings: Homo sapiens, MIA PaCa-2, 72 h, MIA PaCa-2 cells
Summary of the method: (§1)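 CCK-8 absorbance readout; % inhibition = 100 − (compound − blank)/(DMSO − blank) × 100, blank = medium + DMSO, no cells. Dose range 20 μM down to 1.02 nM, 3-fold steps. KRAS(G12C) copy number: MIA PaCa-2 2; NCI-H358 1; NCI-H23 1.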

[2] = biological target: T1, KRAS(G12C) (Homo sapiens, UniProt P01116, G12C); assay: KRAS(G12C) Western blot protein degradation assay in LU65A cells; format: cell-based; set-up: LU65A human lung cancer cell line, which expresses KRAS(G12C); host or cells: LU65A; settings: 6 hr
T1 sequence (P01116 1-188 isoform P01116-2 G12C): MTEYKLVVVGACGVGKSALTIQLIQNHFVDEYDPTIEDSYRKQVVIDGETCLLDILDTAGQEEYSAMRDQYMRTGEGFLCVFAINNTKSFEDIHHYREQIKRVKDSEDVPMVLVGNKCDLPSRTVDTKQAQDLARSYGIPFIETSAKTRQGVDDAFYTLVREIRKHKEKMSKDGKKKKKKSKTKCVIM
Method: The following cancer cell lines were employed: BT-474 human breast carcinoma (ATCC, #HTB-20); MIA PaCa-2 human pancreatic carcinoma [2 copies KRAS(G12C)](ATCC, #CRL-1420); NCI-H23 human non-small cell lung cancer [1 copy KRAS(G12C)](ATCC, #CRL-5800); NCI-H358 human non-small cell lung cancer [1 copy KRAS(G12C)](ATCC, #CRL-5807); LU65A human lung carcinoma (Pharmaron, Beijing, China). Cell lines were cultured essentially according to ATCC and Pharmaron recommendations.
KRAS(G12C) Western Blot Protein Degradation Assay
The MIA PaCa-2 human pancreatic carcinoma cell line and LU65A human lung cancer cell line, which expresses KRAS(G12C), were seeded in 6- or 12-well tissue culture plates, and after 1 hr, test compounds were added at various concentrations and incubated at 37° C./5% CO2 for 48 hr (MIA Paca-2) and 6 hr (LU65A) respectively. Cells were then washed with cold PBS, aspirated and cold RIPA buffer containing a protease/phosphatase inhibitor cocktail was added to lyse cells. After centrifugation, the total protein concentrations of cell lysates were determined using the BCA protein assay. Samples were normalized for equivalent protein concentrations, 5×SDS-PAGE loading buffer added and denatured at 100° C. for 10 min. 20 μl of each sample/well was loaded on a SDS-PAGE gel and electrophoresed for 20 min at 80 V, then 120 V for 1.5 hr. Gels were then electroblotted to nitrocellulose membranes using a wet-transfer method at 250 mA for 2.5 hr. Membranes were incubated with blocking buffer for 1 hr and washed 3 times with TBST for 5 min. Membranes were then incubated with anti-KRAS (Sigma-Aldrich, #SAB1404011) and anti-β-Actin monoclonal antibodies (Cell Signaling Technology, #3700) diluted in blocking buffer at 4° C. overnight per the manufacturer's recommendations. After washing 3 times, blots were incubated with appropriately labeled secondary antibodies for 1 hr at room temperature and washed again. Fluorescence imaging and quantitation was performed using a LI-COR Odyssey. Results was analyzed using GraphPad Prism 7 software. Compound degradation of was determined by the following equation and DC50 values (the concentration at which 50% of the maximal degradation of KRAS occurs) calculated using GraphPad Prism 7 software:
% Inhibition=100−(D−B)/(S−B)*100%. • S: Fluorescence intensity of cells with antibody • D: Fluorescence intensity of compound-treated cells with antibody • B: Fluorescence intensity of cells without antibody

[3] = biological target: T2, HSP90a protein (Homo sapiens, UniProt P07900); assay: HSP90α-binding fluorescent polarization (FP) assay, BODIPY-labeled RNK04010 probe; settings: FP competition with RNK04010 (BODIPY-labeled), 5 nM, 300 min at 25° C.
T2 construct: purchased BPS Bioscience 50298
Summary of the method: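 N-terminal HSP90a construct; tracer 5 nM final (FITC-geldanamycin or BODIPY-RNK04010, a labeled triazolone binder). Compounds 20 μM–5.2 nM, 2.5-fold steps. 25° C, 120 min (FITC) / 300 min (BODIPY). FP readout.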

[4] = tested on: NCI-H358 human non-small cell lung cancer; assay: NCI-H358 CCK-8 proliferation assay; format: cell-based; settings: NCI-H358 cells, 72 hr
Summary of the method: as §1

[5] = biological target: T1, KRAS(G12C); assay: KRAS(G12C)/SOS1 homogeneous time-resolved fluorescence (HTRF) assay; set-up: purchased Cisbio 63ADK000CB16PEG; settings: absence of GTP, 4° C. for 3 hr, read-out: KRAS (G12C) binding
Summary of the method: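 Three-hour incubation at 4 °C of 3-fold compound dilutions (lowest 1.02 nM) with KRAS(G12C), SOS1 and detection reagents, GTP absent. Disruption of the KRAS(G12C)/SOS1 complex detected by time-resolved fluorescence.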

Structure (SMILES) | EC50 [1] [nM] | DC50 [2] [nM] | IC50 [3] [nM] | EC50 [4] [nM] | IC50 [5] [nM]
C=CC(=O)N1CCN(c2nc(OC[C@@H]3CC[C@H](CN4CCN(Cc5ccc(-n6c(O)nnc6-c6cc(C(C)C)c(O)cc6O)cc5)CC4)N3C)nc3c2CCN(c2cccc4cccc(C)c24)C3)C[C@@H]1CC#N [Compound 273, 2-[(2S)-4-(2-{[(2S,5R)-5-{[4-({4-[3-(2,4-dihydroxy-5-isopropylphenyl)-5-hydroxy-1,2,4-triazol-4-yl]phenyl}methyl)piperazin-1-yl]methyl}-1-methylpyrrolidin-2-yl]methoxy}-7-(8-methylnaphthalen-1-yl)-5H,6H,8H-pyrido[3,4-d]pyrimidin-4-yl)-1-(prop-2-enoyl)piperazin-2-yl]acetonitrile] | 100 to 1000 | 100 to 1000 |  |  | 
CCC(=O)N1CCN(c2nc(NCCC(=O)N3CCC(Cc4ccc(CN(C)Cc5ccc(-n6c(O)nnc6-c6cc(C(C)C)c(O)cc6O)cc5)cc4)CC3)nc3c2CCN(c2cc(O)cc4ccccc24)C3)CC1 [Compound 63, trifluoroacetic acid] | > 1000 |  | 100 to 1000 | 100 to 1000 | 
C=CC(=O)N1CCN(c2nc(OC[C@@H]3C[C@H](N4CCN(Cc5ccc(-n6c(O)nnc6-c6cc(C)c(O)cc6O)cc5)CC4)CN3C)nc3c2CCN(c2cccc4ccccc24)C3)C[C@@H]1CC#N [Compound 270, 2-[(2S)-4-(2-{[(2S,4S)-4-[4-({4-[3-(2,4-dihydroxy-5-methylphenyl)-5-hydroxy-1,2,4-triazol-4-yl]phenyl}methyl)piperazin-1-yl]-1-methylpyrrolidin-2-yl]methoxy}-7-(naphthalen-1-yl)-5H,6H,8H-pyrido[3,4-d]pyrimidin-4-yl)-1-(prop-2-enoyl)piperazin-2-yl]acetonitrile] | > 1000 | 100 to 1000 |  |  | 
C=CC(=O)N1CCN(c2nc(OC[C@@H]3CCCN3C(=O)C3CCN(Cc4ccc(-n5c(O)nnc5-c5cc(C(C)C)c(O)cc5O)cc4)CC3)nc3c2CCN(c2cccc4cccc(C)c24)C3)C[C@@H]1CC#N [Compound 155, 2-((S)-1-acryloyl-4-(2-(((S)-1-(1-(4-(3-(2,4-dihydroxy-5-isopropylphenyl)-5-hydroxy-4H-1,2,4-triazol-4-yl)benzyl)piperidine-4-carbonyl)pyrrolidin-2-yl)methoxy)-7-(8-methylnaphthalen-1-yl)-5,6,7,8-tetrahydropyrido[3,4-d]pyrimidin-4-yl)piperazin-2-yl)acetonitrile, trifluoroacetic acid] |  |  | 100 to 1000 | > 1000 | > 1000
CC(C)c1cc(-c2nnc(C(=O)NCC(F)(F)F)n2-c2ccc(CC3CCN(Cc4ccc(CNC(=O)CCNc5nc6c(c(N7CCN(C(=O)C(C)(C)C)CC7)n5)CCN(c5cc(O)cc7ccccc57)C6)cc4)CC3)cc2)c(O)cc1O [Compound 156] |  |  | 100 to 1000 | 100 to 1000 | > 1000
CC(=O)N1CCN(c2nc(NCCC(=O)N3CCC(Cc4ccc(CN(C)Cc5ccc(-n6c(C(=O)NCC(F)(F)F)nnc6-c6cc(C(C)C)c(O)cc6O)cc5)cc4)CC3)nc3c2CCN(c2cccc4ccccc24)C3)C[C@H]1CC#N [Compound 123, (R)-4-(4-(((4-((1-(3-((4-(4-acetyl-3-(cyanomethyl)piperazin-1-yl)-7-(naphthalen-1-yl)-5,6,7,8-tetrahydropyrido[3,4-d]pyrimidin-2-yl)amino)propanoyl)piperidin-4-yl)methyl)benzyl)(methyl)amino)methyl)phenyl)-5-(2,4-dihydroxy-5-isopropylphenyl)-N-(2,2,2-trifluoroethyl)-4H-1,2,4-triazole-3-carboxamide, trifluoroacetic acid] | 100 to 1000 |  | > 1000 | 100 to 1000 | 
C=CC(=O)N1CCN(c2nc(NCCC(=O)N3CCC(CN4CCN(Cc5ccc(-n6c(C(=O)NCC(F)(F)F)nnc6-c6cc(CC)c(O)cc6O)cc5)CC4)CC3)nc3c2CCN(c2cccc4cccc(Cl)c24)C3)C[C@H]1CC#N [Compound 80, (R)-4-(4-((4-((1-(3-((4-(4-acryloyl-3-(cyanomethyl)piperazin-1-yl)-7-(8-chloronaphthalen-1-yl)-5,6,7,8-tetrahydropyrido[3,4-d]pyrimidin-2-yl)amino)propanoyl)piperidin-4-yl)methyl)piperazin-1-yl)methyl)phenyl)-5-(5-ethyl-2,4-dihydroxyphenyl)-N-(2,2,2-trifluoroethyl)-4H-1,2,4-triazole-3-carboxamide, trifluoroacetic acid] |  |  | 100 to 1000 | 100 to 1000 | > 1000
C=C(F)C(=O)N1CCN(c2nc(OC[C@@H]3CCCN3CCCOCCC(=O)NCc3ccc(-n4c(O)nnc4-c4cc(CC)c(O)cc4O)cc3)nc3c2CCN(c2cccc4cccc(Cl)c24)C3)C[C@@H]1CC#N [Compound 161, 3-(3-((S)-2-(((7-(8-chloronaphthalen-1-yl)-4-((S)-3-(cyanomethyl)-4-(2-fluoroacryloyl)piperazin-1-yl)-5,6,7,8-tetrahydropyrido[3,4-d]pyrimidin-2-yl)oxy)methyl)pyrrolidin-1-yl)propoxy)-N-(4-(3-(5-ethyl-2,4-dihydroxyphenyl)-5-hydroxy-4H-1,2,4-triazol-4-yl)benzyl)propanamide] | > 1000 |  | 100 to 1000 | > 1000 | 100 to 1000
C=CC(=O)N1CCN(c2nc(NCCC(=O)N3CCC(Cc4ccc(CN(C)Cc5ccc(-n6c(C(=O)NCC(F)(F)F)nnc6-c6cc(C(C)C)c(O)cc6O)cc5)cc4)CC3)nc3c2CCN(c2cccc4ccccc24)C3)C[C@H]1CC#N [Compound 110, (R)-4-(4-(((4-((1-(3-((4-(4-acryloyl-3-(cyanomethyl)piperazin-1-yl)-7-(naphthalen-1-yl)-5,6,7,8-tetrahydropyrido[3,4-d]pyrimidin-2-yl)amino)propanoyl)piperidin-4-yl)methyl)benzyl)(methyl)amino)methyl)phenyl)-5-(2,4-dihydroxy-5-isopropylphenyl)-N-(2,2,2-trifluoroethyl)-4H-1,2,4-triazole-3-carboxamide, trifluoroacetic acid] | > 1000 |  | > 1000 | > 1000 | 
C=C(F)C(=O)N1CCN(c2nc(OC[C@@H]3CCCN3CCCOCCC(=O)NCc3ccc(-n4c(O)nnc4-c4cc(C(C)C)c(O)cc4O)cc3)nc3c2CCN(c2cccc4cccc(Cl)c24)C3)C[C@@H]1CC#N [Compound 160, 3-(3-((S)-2-(((7-(8-chloronaphthalen-1-yl)-4-((S)-3-(cyanomethyl)-4-(2-fluoroacryloyl)piperazin-1-yl)-5,6,7,8-tetrahydropyrido[3,4-d]pyrimidin-2-yl)oxy)methyl)pyrrolidin-1-yl)propoxy)-N-(4-(3-(2,4-dihydroxy-5-isopropylphenyl)-5-hydroxy-4H-1,2,4-triazol-4-yl)benzyl)propenamide] | > 1000 |  | < 100 | > 1000 | > 1000
C=CC(=O)N1CCN(c2nc(NCCC(=O)NCc3ccc(-n4c(O)nnc4-c4cc(CC)c(O)cc4O)cc3C(F)(F)F)nc3c2CCN(c2cc(O)cc4ccccc24)C3)CC1 [Compound 39, 3-((4-(4-acryloylpiperazin-1-yl)-7-(3-hydroxynaphthalen-1-yl)-5,6,7,8-tetrahydropyrido[3,4-d]pyrimidin-2-yl)amino)-N-(4-(3-(5-ethyl-2,4-dihydroxyphenyl)-5-hydroxy-4H-1,2,4-triazol-4-yl)-2-(trifluoromethyl)benzyl)propanamide, trifluoroacetic acid] |  |  | > 1000 | > 1000 | 
